How the values were obtained:
hM3Dq = molecular target: T1, hM3Dq (Homo sapiens, UniProt P20309, A239G/Y149C); assay: In vivo electrophysiological recording in caudate of anesthetized macaques, hM3Dq
T1 construct: expressed in transfected cells; host or cells: neurons of C57BL/6J mice or of macaques, transduced in vivo by nigral AAV8R12-G88P3-HA-hM3Dq
Experimental: • Electrophysiological recording was performed through a recording chamber while the monkey was anesthetized. Neural responses were recorded by a 16-channel linear probe (Plexon Inc, Uprobe) driven by a mechanical microdrive (Alpha Omega, FlexMT). Signals were passed through a head stage (Plexon Inc, HST/16V-G20 LN) and then split and filtered between 300 Hz and 5 kHz to identify spiking activity with an amplifier system (Plexon Inc, OmniPlex). Detected spikes were then sorted by commercially available software (Plexon Inc, Offline Sorter) for further analysis. To quantify the effect of CNO/DCZ injection, neural activity was recorded for 60 minutes following CNO/DCZ injection. The response time-course for each channel was obtained by counting the spikes within every 10-minute window and then normalizing to the maximal.
To determine the effect of CNO/DCZ injection on the direction of signal change, we performed Pearson correlation between neural responses and time using the ‘corr’ function in Matlab, which generates the correlation coefficient ‘r’ and significant level ‘p’. A neuron was considered to have “Increased” activity when r>0 and p<0.05; and considered to have “Decreased” activity when r<0 and p<0.05. Otherwise, neurons were considered to be “Unchanged” in their neural activities. The responses of all increased neurons were then averaged after being normalized by the maximal response (Crowe et al., 2014; Dai and Wang, 2018; Hirokawa et al., 2019) following CNO/DCZ injection, and then plotted as a function of time to generate the normalized population response.

hM3Dq or rM3Ds = assay: Locomotion test in macaques after nigral DREADD AAV and CNO; type: in vivo
Experimental: To guide the virus injection in SNr, a guide grid of multiple holes spaced by 1 mm was installed on each subject vertically above the SN. By filling vitamin E in these holes, the accurate coordinates for injection could be obtained from the T1-weighted MRI images (3T Tim Trio scanner, Siemens). Virus injections were performed in nine sites covering the whole SNr, and a total volume of 27 μL virus was unilaterally injected in the right SNr at the speed of 300 nL/min.
To intracranially administrate drug and/or perform electrophysiological recording, a recording chamber covering from anterior caudate to posterior GPi was fixed on the skull with 6 titanium screws and dental cement. Each subject was allowed to recover from the surgery for at least 6 weeks prior to further studies.
Locomotion Test: The locomotion tests for monkeys were conducted in a custom-made observation cage (100 cm×100 cm×100 cm). The top and front of the cage were made of toughened glass in order to gain a clear view for behavioral recording. Monkeys were habituated to the observation cage by placing them inside for 30 minutes on three separate days.
For monkeys injected with AAV8R12-G88P3-HA-hM3Dq, CNO was intracranially infused into the dorsomedial caudate through the recording chamber. To infuse while the animal was awake, the monkey was trained to sit in a primate chair specially designed with its head fixed to the primate chair by a mask made of thermoplastic materials. Injections were conducted through a 33-Gauge needle connected to a 250 μL syringe via a polyethylene pipe (Hamilton, Neuros). […] The needle was held for 5 minutes for drug diffusion before retraction. For monkeys injected with AAV8R12-G88P7-rM3Ds-2A-EYFP, CNO was infused via intramuscular injection (10 mg/kg). […] Videos capturing the subjects' behavior were recorded for at least 90 minutes. Animal behaviors from 30-90 minutes after saline/CNO infusion were further analyzed and quantified.
For rotation analysis, only movements that occurred lower than 30 cm on the z-axis were counted. To determine the direction of the rotation, we first computed the center for the rotation data in the x-y plane as (x0, y0) by averaging all data points, and then we computed the angle relative to (x0, y0) for each time point by the following formula:
where θi represents the rotating angle at time i, and (xi, yi) represents the x-y coordinate at time i. We then calculated the change of rotating angle as Δθi=θi−θi−1. For right nigral injections, when Δθ<0, the direction of the rotation was anticlockwise and was labeled as a contraversive rotation. When Δθ>0, the direction of the rotation was clockwise and was labeled as an ipsiversive rotation. The raw data were analyzed and plotted through a custom R package. Code is available on Github (github.com/chenyef/PD_ana/blob/main/Behavior_ana.txt).

[1] = 34 total cells, CNO infusions, saline 40.6%
[2] = monkey CM045, 34 cells, CNO infusion into dorsomedial caudate

T1 sequence (P20309 whole entry Y149C/A239G): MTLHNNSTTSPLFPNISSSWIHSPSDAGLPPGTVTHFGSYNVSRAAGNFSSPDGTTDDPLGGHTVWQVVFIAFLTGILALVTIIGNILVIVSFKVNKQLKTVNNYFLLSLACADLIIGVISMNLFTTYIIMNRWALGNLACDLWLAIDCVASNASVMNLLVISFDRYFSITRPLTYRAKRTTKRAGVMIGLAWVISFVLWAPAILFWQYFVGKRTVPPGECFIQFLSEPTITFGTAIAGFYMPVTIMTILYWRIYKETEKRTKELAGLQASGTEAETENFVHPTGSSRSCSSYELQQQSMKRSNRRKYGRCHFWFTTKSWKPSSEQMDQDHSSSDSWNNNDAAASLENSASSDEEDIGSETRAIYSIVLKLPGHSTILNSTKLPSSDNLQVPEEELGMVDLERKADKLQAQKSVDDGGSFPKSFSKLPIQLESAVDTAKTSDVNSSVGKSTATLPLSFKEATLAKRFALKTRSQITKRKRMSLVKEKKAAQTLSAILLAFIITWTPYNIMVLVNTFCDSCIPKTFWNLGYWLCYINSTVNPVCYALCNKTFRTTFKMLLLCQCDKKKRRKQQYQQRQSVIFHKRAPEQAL

With `C[N+]1([O-])CCN(C2=Nc3cc(Cl)ccc3Nc3ccccc32)CC1` [CNO, Clozapine-N-oxide] the “cells in caudate activated (FIG. 12L)” value (hM3Dq; 34 total cells, CNO infusions, saline 18.8%) was 67.6%, the “cells in caudate inactivated (FIG. 12L)” value (hM3Dq; [1]) was 2.9% and the “cells in caudate unchanged (FIG. 12L)” value (hM3Dq; [1]) was 29.4%. For the same compound, the “cells in caudate activated (FIG. 12C)” value (hM3Dq; [2]) was 70.6%, the “cells in caudate inactivated (FIG. 12C)” value (hM3Dq; [2]) was 8.8% and the “cells in caudate unchanged (FIG. 12C)” value (hM3Dq; [2]) was 20.6%. For the same compound, the “muscle tone, electromyogram recordings” value (hM3Dq or rM3Ds; following CNO infusions, macaques) was “increase in the muscle tone of the contralateral biceps brachii”, the “contraversive rotations (FIG. 10C), mean±SEM” value (hM3Dq or rM3Ds; hM3Dq (intracranial CNO) or rM3Ds (systemic CNO) macaques, n=4, saline 1.004±0.2667) was 6.649±1.662 and the “velocity of ipsiversive rotations (FIG. 10H), mean±SEM” value (hM3Dq or rM3Ds; n=4 macaques, saline 37.43±3.264, not significant) was 41.37±6.566. For the same compound, the “speed during contraversive rotations (FIG. 10G), mean±SEM” value (hM3Dq or rM3Ds; n=4 macaques, saline 38.42±5.465) was 46.98±6.669, the “time in the top portion of the observing cage (FIG. 10D), mean±SEM” value (hM3Dq or rM3Ds; n=4 macaques, saline 68.42±10.7) was 33.74±2.641 and the “total distance (FIG. 10F), mean±SEM” value (hM3Dq or rM3Ds; n=4 macaques, saline 71.53±15.4, not significant) was 97.37±19.41. For the same compound, the “immobile time (FIG. 10E), mean±SEM” value (hM3Dq or rM3Ds; n=4 macaques, saline 107.1±2.322, not significant) was 89.13±8.379.
